We go through ten compounds from patent US4870175A, “6-substituted alkoxy-2-oxo-1,2-dihydroquinoxaline derivatives” (Toyo Jozo Kabushiki Kaisha, priority 1987, dated 1989).

The test system of assay [1] is cyclic AMP/phosphodiesterase. Put plainly: Inhibitory action of cyclic AMP/phosphodiesterase (crude enzyme fraction from sonicated rabbit platelets). The conditions noted are these: 40 min. In kind it is biochemical. Here is the method:
The pharmacological activity of the present compounds [1] is illustrated below. (1) Inhibitory action of cyclic AMP/phosphodiesterase:
A mixture of 2 mM MgCl2 /40 mM Tris-buffer (pH 7.5) 700 μl, enzyme solution (a crude enzyme fraction obtained from sonicated rabbit platelets) 100 μl, and a test sample solution (compound [1] dissolved in 50% aqueous methanol) 100 μl is incubated at 30° C. for 5 mins. 3', 5'-cyclic AMP 100 μl (50 μg) is added thereto and the mixture is further incubated for 40 mins. The reaction is stopped by heating 100° C. for 5 mins. The amount of 5'-AMP in the supernatant obtained by centrifugation at 3000 rpm for 5 mins. is measured using HPLC.
As shown in that table, the compound of the present invention has cyclic AMP/phosphodiesterase inhibitory activity at 1-10 μg/ml.

Assay [2] concerns rabbit platelet-rich plasma. In words: Platelet aggregation inhibition (rabbit platelet-rich plasma, aggregometer). In kind it is cell-based. Particulars: Oryctolagus cuniculus, compound final concentration 10 μM, read-out: Inhibitory ratio. Here is the method: (2) Platelet aggregation inhibition:
A rabbit platelet-rich plasma (5×10^5 /mm^3), to which was added 1/10 volume of a 3.8% sodium citrate solution, 216 μl, is incubated in an aggregometer at 37° C., 1000 rpm, for 3 mins. A test sample solution 12 μl (final concentration 10 μM) is added thereto and the mixture is further incubated for 3 mins., and collagen (aggregation agent) 2.5 μg/ml, ADP 2.5 μM, platelet activating factor (PAF) 0.05 μg/ml or 0.25 mM arachidonic acid (A.A.) 12 μl is added thereto as an aggregating agent, and the platelet aggregation activity is measured.

Setting [3] is: aggregating agent PAF 0.05 μg/ml.
[4] abbreviates: aggregating agent arachidonic acid (A.A.) 0.25 mM.
The mark [5] stands for this setting: aggregating agent collagen 2.5 μg/ml.

Like-named read-outs stand apart in the source and are kept apart here.

With `CCOC(=O)CCCOc1ccc2c(c1)NCC(=O)N2` [Compound 925, 6-(3-ethoxycarbonylpropoxy)-2-oxo-1,2,3,4-tetrahydroquinoxaline], the Inhibitory ratio in assay [1] (1 μg/ml) was found to be 5.3%; in assay [1] (10 μg/ml) it was 26.4%; in assay [1] (100 μg/ml) it was 71.3%. Moreover, the inhibition at 10 µM was 56.5% in assay [2] (aggregating agent ADP 2.5 μM), 29.5% in assay [2] (setting [3]), 46.5% in assay [2] (setting [4]) and 53.8% in assay [2] (setting [5]).
For the compound `CCOC(=O)CCCOc1ccc2[nH]c(=O)c(C)nc2c1` [Compound 945], the Inhibitory ratio in assay [1] (1 μg/ml) came out at 44.3%; in assay [1] (10 μg/ml) it was 83.5%; in assay [1] (100 μg/ml), 88.9%. For the same compound, the inhibition at 10 µM in assay [2] (setting [5]) was determined as 54.2%.
Consider `O=C1CNc2cc(OCCCCc3nnnn3C3CCCCC3)ccc2N1` [Compound 931, 6-[4-(1-cyclohexyltetrazole-5-yl)-butoxy]-2-oxo-1,2,3,4-tetrahydroquinoxaline], for which the Inhibitory ratio in assay [1] (1 μg/ml) is on record as 25.3%; in assay [1] (10 μg/ml) it was 74.3%; in assay [1] (100 μg/ml), 86.4%. Also, the inhibition at 10 µM in assay [2] (setting [3]) worked out at 44.3%; in assay [2] (setting [4]) it was 34%; in assay [2] (setting [5]), 65.2%.
Regarding `CN(C(=O)CCCOc1ccc2c(c1)NCC(=O)N2)C1CCCCC1` [Compound 929, 6-[3-(N-cyclohexyl-N-methyl-aminocarbonyl)propoxy]-2-oxo-1,2,3,4-tetrahydroquinoxaline], the Inhibitory ratio in assay [1] (1 μg/ml) is 11.2%; in assay [1] (10 μg/ml), 53.9%; in assay [1] (100 μg/ml), 88.5%. The inhibition at 10 µM is 49.4% in assay [2] (aggregating agent ADP 2.5 μM), 30.4% in assay [2] (setting [3]), 41.8% in assay [2] (setting [4]) and 50.8% in assay [2] (setting [5]).
In the case of `CCN(C(=O)CCCOc1ccc2[nH]c(=O)cnc2c1)C1CCCCC1` [Compound 915], the Inhibitory ratio is 37.2% in assay [1] (1 μg/ml), 77.7% in assay [1] (10 μg/ml) and 85.1% in assay [1] (100 μg/ml). Also, the inhibition at 10 µM in assay [2] (aggregating agent ADP 2.5 μM) turned out to be 41%; in assay [2] (setting [3]) it was 36%; in assay [2] (setting [4]), 30.4%; in assay [2] (setting [5]), 63.2%.
As to `O=C(CCCOc1ccc2[nH]c(=O)cnc2c1)N(CCO)C1CCCCC1` [Compound 917], the Inhibitory ratio in assay [1] (1 μg/ml) was 16.6%; in assay [1] (10 μg/ml), 59.3%; in assay [1] (100 μg/ml), 87.7%. The inhibition at 10 µM was 36.9% in assay [2] (aggregating agent ADP 2.5 μM), 36.7% in assay [2] (setting [3]), 32.6% in assay [2] (setting [4]) and 57.4% in assay [2] (setting [5]).
For `CCOC(=O)CCCOc1ccc2[nH]c(=O)c(CC)nc2c1` [Compound 946], the Inhibitory ratio in assay [1] (1 μg/ml) turned out to be 78.7%; in assay [1] (10 μg/ml), 92.5%. Moreover, the inhibition at 10 µM in assay [2] (aggregating agent ADP 2.5 μM) turned out to be 91.5%; in assay [2] (setting [3]), 90.7%; in assay [2] (setting [4]) it was 85.1%; in assay [2] (setting [5]), 79.2%.
For `CN(C(=O)CCCOc1ccc2[nH]c(=O)cnc2c1)C1CCCCC1` [Compound 896], the figures for the Inhibitory ratio in assay [1] (1 μg/ml), in assay [1] (10 μg/ml) and in assay [1] (100 μg/ml) were 25.5%, 71.5% and 91.0%, respectively. The inhibition at 10 µM in assay [2] (aggregating agent ADP 2.5 μM) amounted to 37.2%; in assay [2] (setting [3]), 37.1%; in assay [2] (setting [4]) it was 31.1%; in assay [2] (setting [5]) it was 59.2%.
In the case of `CCc1nc2cc(OCCCC(=O)N(CCO)C3CCCCC3)ccc2[nH]c1=O` [Compound 972], the Inhibitory ratio worked out at 84.4% in assay [1] (1 μg/ml) and 93.4% in assay [1] (10 μg/ml). Also, the inhibition at 10 µM in assay [2] (aggregating agent ADP 2.5 μM) came out at 63.6%; in assay [2] (setting [3]), 56.3%; in assay [2] (setting [4]) it was 48.7%; in assay [2] (setting [5]) it was 70.5%.
As for `CCCc1nc2cc(OCCCC(=O)OCC)ccc2[nH]c1=O` [Compound 947], the figures for the Inhibitory ratio in assay [1] (1 μg/ml) and in assay [1] (10 μg/ml) were 66.9% and 90.1%, respectively. Also, the inhibition at 10 µM in assay [2] (aggregating agent ADP 2.5 μM) was 59.5%; in assay [2] (setting [3]), 27.5%; in assay [2] (setting [4]), 19.6%; in assay [2] (setting [5]), 39.5%.
